Where two headings read alike, the source gives them in different places.

Experiment [1] has as its target Recombinant human Bcl-2 protein (Homo sapiens (Human), UniProt P10415). Briefly: Bcl-2 TR-FRET Assay. Format: binding. The essentials:
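TR-FRET read (337 nm excitation, 520/490 nm emission) after 1 h with 0.5 nM FITC-labeled Bak peptide and Tb-cryptate anti-6His antibody. Bcl-2 at 0.05 nM had been pre-incubated 0.5 h with compound. IC50 fitted by four-parameter logistic equation.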
(In general: TR-FRET usually uses a lanthanide donor and a delayed reading to cut background.)

In experiment [2] the target is recombinant human Bcl-2-G101V protein (Homo sapiens (Human), UniProt P10415, G101V). Briefly: Bcl-2-G101V TR-FRET Assay. It counts as binding. To be noted: Bcl-2 G101V mutant, TR-FRET; read-out: Biochemical assay (IC50, nM) Bcl-2 G101V. The essentials: (§1)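 Compounds were titrated at increasing concentrations against the Bcl-2-G101V–ligand interaction. TR-FRET signals were then read (ex 337 nm; em 490/520 nm). Percent inhibition was derived from the 490-to-520 nm ratio, and IC50 from a four-parameter logistic equation.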

For experiment [3], the system named is recombinant human Bcl-2-G101V protein. Briefly: Bcl-2-G101V TR-FRET Assay. Format: binding. To be noted: ratio of biochemical IC50 Bcl-2 G101V / Bcl-2 WT. The essentials:
as §1

The test system of experiment [4] is RS4;11 (BCL-2 dependent acute lymphoblastic leukemia cell line). Briefly: RS4;11 Cell Proliferation Assay. It counts as cell-based. The settings on record: Homo sapiens, RS4-11, RS4;11 cells, read-out: Cellular proliferation assay (IC50, nM) RS4. The essentials:
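Viability measured via CellTiter-Glo luminescence after a 48 h, 37 °C exposure to compounds (10 points, highest 1 μM). Seeding was 50,000 RS4;11 cells per well in 10% FBS RPMI-1640; IC50 given as mean.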

For experiment [5], the system named is BCL-2 G101V knock-in cell line H96 (derive from RS4;11). Briefly: Bcl 2-G101V Knock-In RS4;11 Cell Proliferation Assay. Format: cell-based. The settings on record: Homo sapiens, RS4;11 Bcl-2 G101V knock-in clone H96, 48 hrs, CellTiter-GLO, read-out: Cellular proliferation assay (IC50, nM) RS4. The essentials:
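CellTiter-Glo luminescence after 48 h, 37 °C compound treatment (10 concentrations, maximum 1 μM or 10 μM) gave mean IC50 values. Cells were 50,000 per well of H96, a BCL2-G101V knock-in single clone derived from RS4;11 by Cas9 editing.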
On the technique in general: Cellular ATP, detected with luciferase, serves as a proxy for viable cell number.

Experiment [6] concerns the target recombinant human Bcl-2 D103Y protein (Homo sapiens (Human), UniProt P10415, D103Y). Briefly: Bcl-2-D103Y Biochemical Assay (TR-FRET). The settings on record: for IC50: TR-FRET, FITC labeled Bak peptide; for Ratio of Bcl-2 D103Y/Bcl-2 WT: ratio of IC50. Format: binding. The procedure, abridged: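 Compounds titrated against the Bcl-2 D103Y–ligand interaction; inhibition derived from the TR-FRET emission ratio 490 nm/520 nm after 337 nm excitation. Four-parameter logistic fitting gave IC50.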

Setting [7] is: Bcl-2 wild type, TR-FRET, read-out: Biochemical assay (IC50, nM) Bcl-2 WT.
Where [8] appears, read: wild type Bcl-2, unit inferred, read-out: Bcl-2 WT.

As for `COc1cc(CN2CCN(C3CC4(C3)CN(c3ccc(C(=O)NS(=O)(=O)c5ccc(NCC6CCOCC6)c([N+](=O)[O-])c5)c(Oc5cnc6[nH]ccc6c5)c3)C4)[C@H](c3ccccc3C(C)C)C2)ccc1C1CC1` [Example 319], the IC50 in experiment [1] (setting [7]) was 0.25 nM; in experiment [1] (setting [8]) it was 0.25 nM; in experiment [2], 0.85 nM; in experiment [4] it was 0.24 nM; in experiment [5], 0.84 nM; in experiment [6] it was 0.42 nM. In experiment [3], the “Ratio of Bcl-2 G101V/WT” value came to 3.3. For the same compound, the “Ratio of Bcl-2 D103Y/Bcl-2 WT” value in experiment [6] was 1.7.
`COc1cc(CN2CCN(C3CC4(C3)CN(c3ccc(C(=O)NS(=O)(=O)c5ccc(NCC6CCOCC6)c([N+](=O)[O-])c5)c(Oc5cnc6[nH]cc(F)c6c5)c3)C4)[C@H](c3ccccc3C(C)C)C2)ccc1C1CC1` [Example 320, (R)-4-(6-(4-(4-cyclopropyl-3-methoxybenzyl)-2-(2-isopropylphenyl)piperazin-1-yl)-2-azaspiro[3.3]heptan-2-yl)-2-((3-fluoro-1H-pyrrolo[2,3-b]pyridin-5-yl)oxy)-N-((3-nitro-4-(((tetrahydro-2H-pyran-4-yl)methyl)amino)phenyl)sulfonyl) benzamide]: the IC50 came out at 0.55 nM in experiment [1] (setting [7]); 0.55 nM in experiment [1] (setting [8]); 1.7 nM in experiment [2]; 0.19 nM in experiment [4]; 0.47 nM in experiment [5]; 0.52 nM in experiment [6]. The “Ratio of Bcl-2 G101V/WT” value in experiment [3] is recorded as 3.1. Moreover, in experiment [6], the “Ratio of Bcl-2 D103Y/Bcl-2 WT” value is 0.93.
As for `[2H]C([2H])([2H])Oc1cc(CN2CCN(C3CC4(C3)CN(c3ccc(C(=O)NS(=O)(=O)c5ccc(NC[C@H]6CC[C@](C)(O)CC6)c([N+](=O)[O-])c5)c(Oc5cnc6[nH]cc(F)c6c5)c3)C4)[C@H](c3ccccc3C(C)C)C2)cc2ccoc12` [Example 322, 2-((3-fluoro-1H-pyrrolo[2,3-b]pyridin-5-yl)oxy)-N-((4-((((1r,4r)-4-hydroxy-4-methylcyclohexyl)methyl)amino)-3-nitrophenyl)sulfonyl)-4-(6-((R)-2-(2-isopropylphenyl)-4-((7-(methoxy-d3)benzofuran-5-yl)methyl)piperazin-1-yl)-2-azaspiro[3.3]heptan-2-yl)benzamide], the IC50 is 0.25 nM in experiment [1] (setting [7]); 0.25 nM in experiment [1] (setting [8]); 0.72 nM in experiment [2]; 0.18 nM in experiment [4]; 0.32 nM in experiment [5]; 0.36 nM in experiment [6]. Also, the “Ratio of Bcl-2 G101V/WT” value in experiment [3] was 2.9. Moreover, the “Ratio of Bcl-2 D103Y/Bcl-2 WT” value in experiment [6] is 1.4.
Consider `[2H]C([2H])([2H])Oc1cc(CN2CCN(C3CC4(C3)CN(c3ccc(C(=O)NS(=O)(=O)c5ccc(NC[C@H]6CC[C@](C)(O)CC6)c([N+](=O)[O-])c5)c(Oc5cnc6[nH]ccc6c5)c3)C4)[C@H](c3ccccc3C(C)C)C2)cc2ccoc12` [Example 323, 2-((1H-pyrrolo[2,3-b]pyridin-5-yl)oxy)-N-((4-((((1r,4r)-4-hydroxy-4-methylcyclohexyl)methyl)amino)-3-nitrophenyl)sulfonyl)-4-(6-((R)-2-(2-isopropylphenyl)-4-((7-(methoxy-d3)benzofuran-5-yl)methyl)piperazin-1-yl)-2-azaspiro [3.3]heptan-2-yl)benzamide], for which the IC50 in experiment [1] (setting [7]) came out at 0.22 nM; in experiment [1] (setting [8]), 0.22 nM; in experiment [2] it was 0.45 nM; in experiment [4], 0.21 nM; in experiment [5], 0.42 nM; in experiment [6] it was 0.19 nM. Moreover, the “Ratio of Bcl-2 G101V/WT” value in experiment [3] is listed as 2.1. Moreover, the “Ratio of Bcl-2 D103Y/Bcl-2 WT” value in experiment [6] is reported as 0.87.
On to `[2H]C([2H])([2H])Oc1cc(CN2CCN(C3CC4(C3)CN(c3ccc(C(=O)NS(=O)(=O)c5ccc(NC[C@H]6CC[C@](C)(O)CC6)c([N+](=O)[O-])c5)c(Oc5cnc6[nH]ccc6c5)c3)C4)[C@H](c3ccccc3C(C)C)C2)cc2c1OCC2(C)C` [Example 324, 2-((1H-pyrrolo[2,3-b]pyridin-5-yl)oxy)-N-((4-((((1r,4r)-4-hydroxy-4-methylcyclohexyl)methyl)amino)-3-nitrophenyl)sulfonyl)-4-(6-((R)-2-(2-isopropylphenyl)-4-((7-(methoxy-d3)-3,3-dimethyl-2,3-dihydrobenzofuran-5-yl)methyl)piperazin-1-yl)-2-azaspiro[3.3]heptan-2-yl)benzamide], for which the IC50 came out at 0.16 nM in experiment [1] (setting [7]); 0.16 nM in experiment [1] (setting [8]); 0.31 nM in experiment [2]; 0.22 nM in experiment [4]; 0.51 nM in experiment [5]; 0.14 nM in experiment [6]. Besides, the “Ratio of Bcl-2 G101V/WT” value in experiment [3] came out at 1.9. The “Ratio of Bcl-2 D103Y/Bcl-2 WT” value in experiment [6] is 0.87.
For `[2H]C([2H])([2H])Oc1cc(CN2CCN(C3CC4(C3)CN(c3ccc(C(=O)NS(=O)(=O)c5ccc(NC[C@H]6CC[C@](C)(O)CC6)c([N+](=O)[O-])c5)c(Oc5cnc6[nH]cc(F)c6c5)c3)C4)[C@H](c3ccccc3C(C)C)C2)cc2c1OCC2(C)C` [Example 326, 2-((3-fluoro-1H-pyrrolo[2,3-b]pyridin-5-yl)oxy)-N-((4-((((1r,4r)-4-hydroxy-4-methylcyclohexyl)methyl)amino)-3-nitrophenyl)sulfonyl)-4-(6-((R)-2-(2-isopropylphenyl)-4-((7-(methoxy-d3)-3,3-dimethyl-2,3-dihydrobenzofuran-5-yl)methyl)piperazin-1-yl)-2-azaspiro[3.3]heptan-2-yl)benzamide], the IC50 in experiment [1] (setting [7]) was found to be 0.17 nM; in experiment [1] (setting [8]), 0.17 nM; in experiment [2], 0.49 nM; in experiment [4], 0.19 nM; in experiment [5] it was 0.34 nM; in experiment [6] it was 0.25 nM. Further, in experiment [3], the “Ratio of Bcl-2 G101V/WT” value came out at 3. Also, the “Ratio of Bcl-2 D103Y/Bcl-2 WT” value in experiment [6] was 1.5.
Consider `COc1cc(CN2CCN(C3CC4(C3)CN(c3ccc(C(=O)NS(=O)(=O)c5ccc(NC[C@H]6CC[C@](C)(O)CC6)c([N+](=O)[O-])c5)c(Oc5cnc6[nH]cc(F)c6c5)c3)C4)[C@H](c3ccccc3C(C)C)C2)cc2c1OC(C)(C)CC2` [Example 337, 2-((3-fluoro-1H-pyrrolo[2,3-b]pyridin-5-yl)oxy)-N-((4-((((1r,4r)-4-hydroxy-4-methylcyclohexyl)methyl)amino)-3-nitrophenyl)sulfonyl)-4-(6-((R)-2-(2-isopropylphenyl)-4-((8-methoxy-2,2-dimethylchroman-6-yl)methyl)piperazin-1-yl)-2-azaspiro[3.3]heptan-2-yl)benzamide], for which the IC50 in experiment [1] (setting [7]) came out at 0.12 nM; in experiment [1] (setting [8]), 0.12 nM; in experiment [2], 0.37 nM; in experiment [4], 0.18 nM; in experiment [5], 0.63 nM; in experiment [6], 0.39 nM. In addition, the “Ratio of Bcl-2 G101V/WT” value in experiment [3] stood at 3. Moreover, the “Ratio of Bcl-2 D103Y/Bcl-2 WT” value in experiment [6] amounted to 3.2.

For the origin of these results see US20240376097A1, “BCL-2 Inhibitor” (BeiGene Ltd., priority 2020, published 2024).
